According to patent publication US20240041859A1, “METHODS OF TREATING AND PREVENTING KIDNEY DISEASE” (Washington University, priority 2020, published 2024):

Assays:
[1] = test system: pkd1-null (WT9-12) cells; test: centrosome clustering inhibitors on ADPKD cell line; assay type: cell-based; conditions: for mitotic progression / spindle assembly checkpoint (SAC) and cell death of cells with CA: cells with CA; for centrosome clustering in cells with CA: pkd1-null (WT9-12) cells
Description: (§1) Since this approach worked in ADPKD cells, mouse models were subsequently used to test the efficacy of the inhibitors in vivo.

[2] = test system: wild-type (HK2) cells; test: centrosome clustering inhibitors on wild-type cells; assay type: cell-based
Description: as §1

[3] = test system: CPAP-tubulin interaction; conditions: binding to tubulin, competing for the CPAP binding site of P-tubulin; cited from earlier work
[4] = test system: PKD1^RC/RC mice; test: slow-onset ADPKD mouse model, five-month treatment from six months of age; assay type: in vivo
Description: To test the inhibitors, a slow-onset mouse model of ADPKD was needed that would allow for an extended period of time to treat these mice with the centrosome clustering inhibitors. The widely used slow-onset ADPKD model called the PKD1^RC/RC mouse (Hopp et al, JCI, 2012) was chosen for the small molecule inhibitor tests. These mice develop cysts slowly, such that kidney size increases around 6 months of age, and kidney function declines—as indicated by elevated blood-urea nitrogen (BUN) levels—around 9 months of age. The mice also show extensive cystogenesis as they age. […] Thus, this model was ideal for testing the centrosome clustering inhibitors. Using the slow-onset ADPKD model, the optimal effective time-course for inhibition of centrosome clustering using CCB02 and PJ-34 can be determined. Example 1 describes treatment at timepoints (e.g., beginning at six months of age, beginning at nine months, and up to eleven months of age) and for periods of time (e.g., every other day for sixty days or two months, every two days for five months). PKD1^RC/RC mice were treated with the inhibitors beginning at six months of age—at a stage when their kidneys have yet to dramatically increase in size and show functional decline (see e.g., FIG. 8). Centrosome clustering inhibitor CCB02 was administered by gavage every two days for a total of five months. Also included in the analysis was the only FDA-approved drug for ADPKD, tolvaptan. […] Blood and urine were collected at one-month intervals to monitor kidney function (see e.g., FIG. 8).

[5] = test system: PKD1^RC/RC mice; test: slow-onset ADPKD mouse model, sixty-day treatment followed by three-month washout; assay type: in vivo
Description: To test the inhibitors, a slow-onset mouse model of ADPKD was needed that would allow for an extended period of time to treat these mice with the centrosome clustering inhibitors. The widely used slow-onset ADPKD model called the PKD1^RC/RC mouse (Hopp et al, JCI, 2012) was chosen for the small molecule inhibitor tests. These mice develop cysts slowly, such that kidney size increases around 6 months of age, and kidney function declines—as indicated by elevated blood-urea nitrogen (BUN) levels—around 9 months of age. The mice also show extensive cystogenesis as they age. […] Thus, this model was ideal for testing the centrosome clustering inhibitors. Using the slow-onset ADPKD model, the optimal effective time-course for inhibition of centrosome clustering using CCB02 and PJ-34 can be determined. Example 1 describes treatment at timepoints (e.g., beginning at six months of age, beginning at nine months, and up to eleven months of age) and for periods of time (e.g., every other day for sixty days or two months, every two days for five months). […] PKD1^RC/RC mice were administered centrosome clustering inhibitor CCB02 beginning at nine months and up to eleven months of age (see e.g., FIG. 12A). CCB02 was administered by gavage every other day for sixty days (see e.g., FIG. 8). The treatment was arrested for three months, and animals were monitored for three additional months to determine if cysts returned once the compounds are no longer administered.

[6] = annually; cited from earlier work
[7] = five months treatment vs two-month scheme

In the case of `COc1ncc2cc3ccccc3nc2c1C#N` [CCB02], the mitotic progression [1] is reported as “delay in mitotic progression”, the “spindle assembly checkpoint (SAC) and cell death of cells with CA” value [1] is reported as “activation of the spindle assembly checkpoint (SAC), leading to cell death” and the “centrosome clustering in cells with CA” value [1] is reported as “inhibited centrosome clustering”. The “normal mitotic spindle formation in cells with normal centrosome number” value [2] was “not impacting normal mitotic spindle formation”, the IC50 [3] was 689 nM and the cyst formation ([4]; five months treatment) was “better results in comparison to the FDA-approved drug tolvaptan”. For the same compound, the fibrosis markers ([4]; five months treatment) was “significant reduction in fibrosis markers”, the effect on cystogenesis [4, 7] was “even greater effect on cystogenesis” and the “effect on renal fibrosis” value [4, 7] was “even greater effect on renal fibrosis”. The “cyst formation at eleven months” value ([5]; gavage every other day for sixty days, compared to untreated mice) was “reduction in cyst formation”, the BUN ([5]; three months post-washout) was “no increase” and the cyst re-formation ([5]; three months post-washout) was “cysts did not reform”. For the same compound, the fibrosis ([5]; three months post-washout) was “fibrosis was not evident” and the serum creatinine ([5]; three months post-washout) was “no increase”.

In the case of `CN(C)CC(=O)Nc1ccc2[nH]c(=O)c3ccccc3c2c1.Cl` [PJ-34], the mitotic progression [1] is reported as “delay in mitotic progression”, the “spindle assembly checkpoint (SAC) and cell death of cells with CA” value [1] is reported as “activation of the spindle assembly checkpoint (SAC), leading to cell death” and the “centrosome clustering in cells with CA” value [1] is reported as “inhibited centrosome clustering”. For the same compound, the “normal mitotic spindle formation in cells with normal centrosome number” value [2] was “not impacting normal mitotic spindle formation”.

In the case of `Cc1ccccc1C(=O)Nc1ccc(C(=O)N2CCCC(O)c3cc(Cl)ccc32)c(C)c1` (centres unmarked) [tolvaptan], the “reduction of the rate of decline in renal function” value [6] is listed as 2%-3% and the fibrosis markers ([4]; five months treatment) is listed as “significant reduction in fibrosis markers”.
